Test results from patent publication US20220218614A1, “IONIZABLE CATIONIC LIPIDS AND LIPID NANOPARTICLES, AND METHODS OF SYNTHESIS AND USE THEREOF” (Tidal Therapeutics, Inc., priority 2020, published 2022).
Entries after “also recorded” stand apart in the source; their conditions may differ.

Columns and labels:
[1] = Zeta potential of LNPs by laser Doppler electrophoresis in 5 mM pH 5.5 MES and 5 mM pH 7.4 HEPES buffer; assay type: physicochemical; details: pH 5.5 MES and pH 7.4 HEPES buffer
Procedure: (§1) Samples of the LNPs produced in Example 2 were characterized to determine the average hydrodynamic diameter, zeta potential, and mRNA content (total and dye-accessible). The hydrodynamic diameter was determined by dynamic light scattering (DLS) using a Zetasizer model ZEN3600 (Malvern Pananalytical, UK). The zeta potential was measured in 5 mM pH 5.5 MES buffer and 5 mM pH 7.4 HEPES buffer by laser Doppler electrophoresis using the Zetasizer.

[2] = Freeze thaw stability of LNP formulations (storage at 4° C., −80° C. or flash frozen in liquid nitrogen; DLS); assay type: physicochemical; details: one freeze thaw cycle, relative to 4 C storage
Procedure: Following the preparation of the targeted LNP formulation, the formulation was split into two portions. One portion was exchanged into 40 mM pH 7.4 HEPES buffer, and the other portion was exchanged into 30 mM pH 7.4 Tris buffer. The buffer exchange was performed using a discontinuous diafiltration method where the LNP formulation sample was transferred into a centrifugal ultrafiltration device with […] MWCO regenerated cellulose membrane (Amicon Ultra-4, MilliporeSigma, Massachusetts, US), then diluted 10-fold with the exchange buffer, and concentrated back to the original volume by centrifuging at 500 rcf. This dilution and concentration step was repeated one additional time. The exchanged LNP samples were then divided into separate aliquots that were mixed with concentrated sodium chloride and sucrose solutions to provide the final freeze-thaw sample formulations. Samples of each freeze-thaw formulation were then stored at 4° C., frozen at −80° C., or flash frozen in liquid nitrogen. The samples were later thawed at room temperature and tested for size by DLS and in vitro T cell transfection.

[3] = Hydrodynamic diameter and polydispersity of LNPs by dynamic light scattering (DLS), Zetasizer; assay type: physicochemical; details: insertion of anti-CD3 hSP34-PEG2k-DSPE conjugate
Procedure: as §1

[4] = tested on: primary human T-cells (CD3+ T cells); test: In vitro LNP transfection of primary human T-cells (GFP, Cy5 or DiI, viability by FACS); assay type: cell-based
Text: This example describes the protocol used for in vitro LNP transfections in primary human T-cells. This method is used to assess LNP in vitro efficacy in relevant target cells (CD3+ T cells) by first transfecting the cells using LNPs loaded with mRNA encoding for a reporter gene, such as GFP mRNA, and then assessing transfection by measuring reporter gene expression by fluorescence-[…] cell sorting (FACS). Additionally, particle association with cells may be observed by in the same assay by labeling individual nanoparticle components, such as the mRNA, with a fluorescent dye, such as Cy5, and then observing cell/dye association by FACS.
CD3+ T cells were isolated from frozen peripheral blood mononuclear cells using an EasySep Human T Cell Isolation Kit on a RoboSep automated cell isolation system from […]. T cells were plated into a flat bottom 96-well plate in RPMI cell culture media supplemented with glutamax, 10% fetal bovine serum, and 40 ng/mL IL2. 100 μL of cell suspension was seeded per well at a density of 1M T cells/mL (100K T cells/well). Cells were allowed to rest for two hours in a 37° C. incubator, and then were transfected by gently adding 10 μL of a 22 μg/mL (by mRNA) nanoparticle suspension, resulting in a final mRNA concentration of 2 μg/mL. Cells were gently mixed with a pipette and then incubated for 24 hours in a 37° C. incubator. After incubation the cells were analyzed using an ThermoFisher Attune NXT flow cytometer. Cy5 was detected using a 638 nm laser with 670/14 nm filter. eGFP was detected using a 488 nm laser and a 530/30 nm filter. Data were analyzed using FlowJo software from BD biosciences. FACS data were first gated to exclude doublets and dead cells and then gated for GFP and Cy5. Gates for GFP+ and Cy5+were set such that a control sample (PBS treated T cells) was <0.1% positive.
CD3+ T cells were isolated from frozen peripheral blood mononuclear cells using an EasySep Human T Cell Isolation Kit on a RoboSep automated cell isolation system from […]. T cells were plated into a round bottom 96-well plate in RPMI cell culture media supplemented with glutamax, 10% fetal bovine serum, pen-strep, and 40 ng/mL IL-2. 100 μL of cell suspension was seeded per well at a density of 1M T cells/mL (100K T cells/well). Cells were allowed to rest for two hours in a 37° C. incubator, and then were transfected by gently adding 10 μL of a 22 μg/mL (by mRNA) nanoparticle suspension, resulting in a final mRNA concentration of 2 μg/mL (unless otherwise noted). Cells were gently mixed with a pipette and then incubated for 24 hours in a 37° C. incubator. After incubation the cells were diluted with FACS buffer (BD 554657) and analyzed using a BD Fortessa flow cytometer. Data were analyzed using FlowJo software from BD biosciences.

[5] = Apparent pKa of LNPs by TNS fluorescent probe; assay type: physicochemical; details: LNP made with the named ionizable lipid; pH at 50% of maximum TNS fluorescence
Text: This example describes the fluorescent dye based method used for measurement of the apparent pKa of the lipid nanoparticles. Apparent pKa determines the nanoparticle surface charge under physiological pH conditions, typically a pKa value in the endosomal pH range (6-7.4) results in LNPs that are neutral or slightly charged at plasma or the extracellular space (pH 7.4) and become strongly positive under acidic endosomal environments. This positive surface charge drives fusion of the LNP surface with negatively charged endosomal membranes resulting in destabilization and rupture of the endosomal compartment and LNP escape into the cytosolic compartment, a critical step in cytosolic delivery of mRNA and protein expression via engagement of the cells ribosomal machinery.
The apparent pKa of LNPs made using ionizable Lipids 2, 5 (synthesized as described in example 1), 6 and 7 (synthesized using method analogous to Lipid 2, 5, respectively, except using diethyl amine instead of dimethyl amine to incorporate the tertiary amine head group) were determined by 6-(p-Toluidino)-2-naphthalenesulfonic acid (TNS) fluorescence measurement in aqueous buffers covering a range of pH values (pH 4-pH 10). TNS is non-fluorescent when free in solution, but which fluoresces strongly when associated with a positively charged lipid nanoparticle. At a pH values below the pKa of the nanoparticle, positive LNP surface charge results in dye recruitment at the particle interface resulting in TNS fluorescence. At pH values above the LNP pKa no fluorescence is observed. The apparent pKa of the LNP is reported as the pH at which the fluorescence is at 50% of its maximum, as determined using a four-point logistic curve fit.

[6] = Quant-iT RiboGreen RNA assay: dye accessible and total (Triton) mRNA content, encapsulation; assay type: physicochemical; details: Table 9: Lipid 2 and Lipid 6 LNP
Procedure: RNA content of the nanoparticles is measured using Thermo Fisher Quant-iT RiboGreen RNA Assay Kit. Dye accessible RNA, which includes both non-incorporated RNA and RNA that is near the surface of the nanoparticle, is measured by diluting the nanoparticles to approximately 1 μg/mL mRNA using HEPES buffered saline, and then adding Quant-iT reagent to the mixture. Total RNA content is measured by diluting the particles to 1 μg/mL mRNA using HEPES buffered saline, disrupting the nanoparticles by heating them to 60° C. for 30 minutes in HEPES buffered saline containing 0.5% Triton, and then adding Quant-It reagent. RNA is quantified by measuring fluorescence at 485/535 nm, and concentration is determined relative to a contemporaneously run RNA standard curve.

human CD8 T cells = test: Transfection of human CD8 T cells with Fab-targeted Cy5/GFP mRNA LNPs; assay type: cell-based; details: Lipid 8 LNP, Cy5/GFP mRNA approximately 2.5 μg/mL, approximately 24 hr, Fab conjugate post-inserted
Procedure: LNPs were prepared using the mixing process described in Example 6, the buffer exchange process described in Example 21. hSP34 and TRX2 Fab-lipid conjugates generated from methods described in Example 4 and a non-T cell specific anti-HER2 lipid-conjugate (Nellis D F, Ekstrom D L, Kirpotin D B, Zhu J, Andersson R, Broadt T L, Ouellette T F, Perkins S C, Roach J M, Drummond D C, Hong K, Marks J D, Park J W and Giardina S L (2005) Preclinical manufacture of an anti-HER2 scFv-PEG-DSPE, liposome-inserting conjugate. 1. Gram-scale production and purification. Biotechnol Prog 21:205-220) were post-inserted at various densities (SP34 0.6-17 g/mol; TRX2 3-9 g/mol; anti-HER2 17 g/mol) into LNPs containing Lipid 8, Cy5 labeled GFP mRNA and GFP mRNA (1:9 Cy5:GFP mass ratio) by adding conjugate and LNPs together and heating the solution without mixing in a thermal cycler at 60 C for 60 min and cooled to 4° C. for 3-5 min. […] After transfection, LNP binding efficiency (Cy5) and transfection efficiency (GFP) was evaluated by flow cytometry. Supernatants were measured for human IFNγ concentration using a commercially available ELISA kit under manufacturers recommended conditions (R&D Systems Duoset). […]

[7] = theoretical total mRNA 45 μg/mL

Row | Compound | LNP surface charge (zeta potential), in words [1] | LNP size and polydispersity after freeze-thaw, in words [2] | change in particle size and PDI upon conjugate insertion [3] | T-cell transfection and cell association after freeze-thaw, in words ([4]; after one freeze thaw cycle, relative to 4 C storage) | GFP protein expression (% GFP+ cells, GFP MFI), in words ([4]; hSP34 targeted LNP with GFP mRNA, 24 hours) | LNP association with cells (% Cy5+/Cy5 MFI or % DiI+/DiI MFI), in words ([4]; hSP34 targeted LNP, 24 hours) | T-cell viability / tolerability, in words ([4]; hSP34 targeted LNP, 24 hours, dose as in the value) | apparent pKa of LNP (TNS) [5] | % Dye Accessible mRNA [6] [%] | Measured total (Triton method) mRNA [6, 7] [µg/mL] | Ribogreen Dye Accessible mRNA [6, 7] [µg/mL] | transfection (% GFP+, GFP MFI) and binding (% Cy5+, Cy5 MFI), in words (human CD8 T cells)
1 | CCCCC/C=C\C/C=C\CCCCCCCC(=O)OC[C@H](COC(=O)CCCN(CC)CC)OC(=O)CCCCCCC/C=C\C/C=C\CCCCC [Lipid 6] | greater positive surface charge relative to Lipid 12 and 13 | minor changes in particle size distributions after frozen storage at −80 C | significantly greater size distribution changes compared to Lipid 12 and Lipid 13 LNPs; also recorded: moderate changes in particle size and PDI | retained function after being subjected to freeze-thaw stress | Dose dependent expression of GFP protein | equally associated with cells | well tolerated by T-cells at all LNP doses tested; also recorded: moderately higher viability at higher dose of 2 μg/mL | ~7 | 15 | 40 | 6 | 
2 | Hu291: anti-CD3 Fab, SEQ ID NO: 4 and 5 |  |  |  |  |  |  |  |  |  |  |  | high levels of % Cy5+ T cells
